Reference: ChEMBL document CHEMBL5465560, “Selectivity Literature for EUbOPEN Chemogenomic Library” (2024)
Blank lines part the entries; values can stand above or below the compound they belong to.

Columns and labels:
[1] = target: Casein kinase I isoform gamma-3 (Homo sapiens) (UniProt Q9Y6M4); experiment: Selectivity interaction (Ambit KINOMEscan and KiNATiv profiling in Jurkat cells) EUB0000090b CSNK1G3; type: cell-based; conditions: at 1 µM
[2] = target: T1, Mitogen-activated protein kinase kinase kinase 3 (Homo sapiens) (UniProt Q99759); experiment: Selectivity interaction (ActivX KiNativ screen (kinase selectivity in THP-1 cell lysates)) EUB0000639a MAP3K3; type: subcellular; conditions: lysate, at 1 µM
T1 sequence (whole entry): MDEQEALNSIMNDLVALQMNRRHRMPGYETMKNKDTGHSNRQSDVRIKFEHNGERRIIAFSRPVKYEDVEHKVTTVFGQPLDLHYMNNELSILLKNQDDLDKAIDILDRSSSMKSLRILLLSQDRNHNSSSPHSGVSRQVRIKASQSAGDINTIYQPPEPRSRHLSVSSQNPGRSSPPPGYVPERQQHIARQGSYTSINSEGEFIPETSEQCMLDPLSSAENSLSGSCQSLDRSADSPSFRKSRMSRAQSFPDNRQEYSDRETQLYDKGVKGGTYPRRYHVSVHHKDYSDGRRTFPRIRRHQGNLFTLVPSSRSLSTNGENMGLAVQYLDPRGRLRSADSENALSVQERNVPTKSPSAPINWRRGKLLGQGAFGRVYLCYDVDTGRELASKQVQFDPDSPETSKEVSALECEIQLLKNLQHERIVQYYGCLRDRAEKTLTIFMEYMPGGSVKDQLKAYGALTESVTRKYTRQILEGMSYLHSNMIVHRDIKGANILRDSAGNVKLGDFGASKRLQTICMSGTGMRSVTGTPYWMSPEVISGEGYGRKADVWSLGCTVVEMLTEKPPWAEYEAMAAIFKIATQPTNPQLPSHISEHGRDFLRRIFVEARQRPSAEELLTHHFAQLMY

[3] = target: T2, Phosphatidylinositol 5-phosphate 4-kinase type-2 gamma (Homo sapiens) (UniProt Q8TBX8); experiment: Selectivity interaction (ActivX KiNativ screen (kinase selectivity in THP-1 cell lysates)) EUB0000639a PIP4K2C; type: subcellular; conditions: lysate, at 0.2 µM
T2 sequence (whole entry): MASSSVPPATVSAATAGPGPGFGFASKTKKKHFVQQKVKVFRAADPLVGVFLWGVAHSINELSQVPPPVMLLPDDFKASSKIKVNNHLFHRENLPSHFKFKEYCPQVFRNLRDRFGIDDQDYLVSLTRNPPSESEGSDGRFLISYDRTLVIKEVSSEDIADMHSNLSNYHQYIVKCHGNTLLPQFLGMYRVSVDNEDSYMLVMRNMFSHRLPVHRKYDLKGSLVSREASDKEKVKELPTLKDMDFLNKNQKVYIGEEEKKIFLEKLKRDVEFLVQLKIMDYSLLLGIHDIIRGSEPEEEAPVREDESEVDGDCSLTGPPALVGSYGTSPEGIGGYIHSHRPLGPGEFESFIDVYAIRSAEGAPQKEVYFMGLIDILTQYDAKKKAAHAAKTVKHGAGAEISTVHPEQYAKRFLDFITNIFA

[4] = target: DNA (cytosine-5)-methyltransferase 3B (Homo sapiens) (UniProt Q9UBC3); experiment: Selectivity interaction (Methyltransferase screen (radiometric assays, panel of 8 PRMTs, 21 protein lysine methyltransferases, 3 DNA methyltransferases, and one RNA methyltransferase)) EUB0000272b DNMT3B
[5] = target: Histone-lysine N-methyltransferase KMT5C (Homo sapiens) (UniProt Q86Y97); experiment: Selectivity interaction (Methyltransferase screen (radiometric assays, panel of 8 PRMTs, 21 protein lysine methyltransferases, 3 DNA methyltransferases, and one RNA methyltransferase)) EUB0000272b SUV420H2
Histone-lysine N-methyltransferase KMT5C (Homo sapiens), sequence (Q86Y97 whole entry, looked up): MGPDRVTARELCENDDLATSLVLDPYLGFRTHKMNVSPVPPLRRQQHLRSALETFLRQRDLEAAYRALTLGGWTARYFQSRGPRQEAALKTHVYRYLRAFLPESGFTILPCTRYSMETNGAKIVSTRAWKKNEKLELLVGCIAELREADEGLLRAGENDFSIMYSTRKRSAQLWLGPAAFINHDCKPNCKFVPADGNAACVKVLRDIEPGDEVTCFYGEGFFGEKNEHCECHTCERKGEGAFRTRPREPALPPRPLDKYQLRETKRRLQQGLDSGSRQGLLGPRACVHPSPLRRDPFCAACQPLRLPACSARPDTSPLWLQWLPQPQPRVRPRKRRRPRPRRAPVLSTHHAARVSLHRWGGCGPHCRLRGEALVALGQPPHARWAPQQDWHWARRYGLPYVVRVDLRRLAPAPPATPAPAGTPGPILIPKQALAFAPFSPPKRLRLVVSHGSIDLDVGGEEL

D(2) dopamine receptor = D(2) dopamine receptor (Homo sapiens, UniProt P14416); experiment: Selectivity interaction (GPCR panel (PDSP screen)) EUB0001079a DRD2; conditions: at 10 µM
D(2) dopamine receptor, sequence (P14416 whole entry): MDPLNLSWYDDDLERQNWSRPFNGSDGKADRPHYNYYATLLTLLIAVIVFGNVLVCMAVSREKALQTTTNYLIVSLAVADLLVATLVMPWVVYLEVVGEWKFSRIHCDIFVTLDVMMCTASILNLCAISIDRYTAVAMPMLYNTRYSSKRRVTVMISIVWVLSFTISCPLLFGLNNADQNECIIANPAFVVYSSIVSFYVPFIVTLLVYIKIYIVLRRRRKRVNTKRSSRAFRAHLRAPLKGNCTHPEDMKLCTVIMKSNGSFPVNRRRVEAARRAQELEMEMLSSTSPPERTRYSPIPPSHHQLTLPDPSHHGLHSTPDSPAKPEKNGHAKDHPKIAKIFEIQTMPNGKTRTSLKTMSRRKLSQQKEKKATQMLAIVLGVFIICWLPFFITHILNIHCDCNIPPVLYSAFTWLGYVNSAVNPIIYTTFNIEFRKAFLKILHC

[6] = target: Calcium/calmodulin-dependent protein kinase type 1 (Homo sapiens) (UniProt Q14012); experiment: Selectivity interaction (KinomeScan (DiscoverX)) EUB0001619a CAMK1; conditions: at 1 µM
Calcium/calmodulin-dependent protein kinase type 1 (Homo sapiens), sequence (Q14012 whole entry, looked up): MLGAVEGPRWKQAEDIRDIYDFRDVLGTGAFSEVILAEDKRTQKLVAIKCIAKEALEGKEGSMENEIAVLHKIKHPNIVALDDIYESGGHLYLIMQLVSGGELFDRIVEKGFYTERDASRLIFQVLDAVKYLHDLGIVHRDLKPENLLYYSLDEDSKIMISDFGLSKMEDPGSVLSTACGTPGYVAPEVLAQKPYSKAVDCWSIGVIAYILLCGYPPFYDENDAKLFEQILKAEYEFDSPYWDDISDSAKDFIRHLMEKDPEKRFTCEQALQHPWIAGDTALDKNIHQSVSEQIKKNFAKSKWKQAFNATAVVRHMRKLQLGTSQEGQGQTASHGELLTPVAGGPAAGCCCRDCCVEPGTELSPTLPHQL

[7] = target: T3, Mitogen-activated protein kinase kinase kinase 5 (Homo sapiens) (UniProt Q99683); experiment: Selectivity interaction (KinomeScan (DiscoverX)) EUB0000607a MAP3K5; conditions: at 10 µM
T3 sequence (whole entry): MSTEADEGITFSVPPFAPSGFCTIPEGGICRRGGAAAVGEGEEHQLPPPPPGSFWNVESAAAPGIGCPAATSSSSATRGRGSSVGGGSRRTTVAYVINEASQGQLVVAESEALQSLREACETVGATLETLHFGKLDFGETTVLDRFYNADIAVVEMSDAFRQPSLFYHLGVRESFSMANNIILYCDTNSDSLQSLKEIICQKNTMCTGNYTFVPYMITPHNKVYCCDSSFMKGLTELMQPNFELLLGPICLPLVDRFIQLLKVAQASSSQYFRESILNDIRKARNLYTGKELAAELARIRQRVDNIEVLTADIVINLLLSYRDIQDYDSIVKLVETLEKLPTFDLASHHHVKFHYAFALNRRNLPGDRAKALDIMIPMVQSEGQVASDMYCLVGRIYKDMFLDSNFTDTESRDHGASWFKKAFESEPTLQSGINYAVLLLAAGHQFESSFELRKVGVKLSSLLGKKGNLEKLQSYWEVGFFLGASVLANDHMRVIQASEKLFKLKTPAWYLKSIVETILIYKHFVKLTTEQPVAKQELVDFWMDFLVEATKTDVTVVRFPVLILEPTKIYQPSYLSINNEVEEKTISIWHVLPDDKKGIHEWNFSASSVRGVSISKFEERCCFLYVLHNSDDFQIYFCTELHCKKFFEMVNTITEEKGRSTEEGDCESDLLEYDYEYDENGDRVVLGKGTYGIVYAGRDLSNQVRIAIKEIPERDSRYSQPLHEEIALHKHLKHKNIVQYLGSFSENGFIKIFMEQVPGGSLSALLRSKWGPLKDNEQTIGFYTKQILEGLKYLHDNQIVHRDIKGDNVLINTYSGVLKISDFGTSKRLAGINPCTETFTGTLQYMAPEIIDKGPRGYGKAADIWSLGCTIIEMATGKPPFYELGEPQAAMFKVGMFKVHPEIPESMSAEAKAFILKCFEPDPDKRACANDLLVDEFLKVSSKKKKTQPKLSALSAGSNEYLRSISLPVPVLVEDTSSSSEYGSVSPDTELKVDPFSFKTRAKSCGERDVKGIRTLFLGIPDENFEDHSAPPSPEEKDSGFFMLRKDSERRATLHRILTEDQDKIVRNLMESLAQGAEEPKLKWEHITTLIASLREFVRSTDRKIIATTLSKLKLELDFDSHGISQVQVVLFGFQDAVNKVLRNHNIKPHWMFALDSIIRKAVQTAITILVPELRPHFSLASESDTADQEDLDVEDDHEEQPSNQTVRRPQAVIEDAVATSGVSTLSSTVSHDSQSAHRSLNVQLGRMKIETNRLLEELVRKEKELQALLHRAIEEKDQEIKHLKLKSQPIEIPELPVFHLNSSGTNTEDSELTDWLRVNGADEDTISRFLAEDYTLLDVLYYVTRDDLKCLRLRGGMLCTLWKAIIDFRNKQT

Casein kinase I isoform gamma-3 (Homo sapiens), sequence (Q9Y6M4 whole entry, looked up, canonical isoform): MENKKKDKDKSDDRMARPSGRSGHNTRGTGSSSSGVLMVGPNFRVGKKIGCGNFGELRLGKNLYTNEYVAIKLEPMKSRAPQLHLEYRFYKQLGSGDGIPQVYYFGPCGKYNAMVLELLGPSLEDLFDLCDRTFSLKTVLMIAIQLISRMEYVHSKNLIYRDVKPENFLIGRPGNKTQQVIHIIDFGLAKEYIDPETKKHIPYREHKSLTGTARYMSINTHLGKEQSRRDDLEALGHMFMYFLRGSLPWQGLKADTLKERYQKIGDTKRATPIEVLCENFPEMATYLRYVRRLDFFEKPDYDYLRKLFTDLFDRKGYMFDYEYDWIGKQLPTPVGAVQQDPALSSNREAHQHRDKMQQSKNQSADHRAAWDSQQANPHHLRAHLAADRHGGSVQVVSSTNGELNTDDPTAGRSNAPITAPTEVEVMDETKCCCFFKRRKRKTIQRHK

Structure (SMILES): CN(C)C/C=C/C(=O)Nc1ccc(C(=O)N2CCCC(Nc3ncc(Cl)c(-c4c[nH]c5ccccc45)n3)C2)cc1 (stereo not given)
% of control [1]: 67%

% of inhibition [2]: -7.9% | % of inhibition [3]: 51.3%
Structure (SMILES): CC[C@@H]1[C@H](F)C(=O)N[C@@H]1COc1nccc2cc(C(N)=O)c(OC)cc12 [ZIMLOVISERTIB]

% of activity ([4]; at 1 µM): 97.3% | % of activity ([4]; at 10 µM): 102% | % of activity ([5]; at 1 µM): 101% | % of activity ([5]; at 10 µM): 102%
Structure (SMILES): Cc1cc(C)cc([C@H]2c3cc(C)ccc3NC(=O)CN2C(=O)c2ccc(Br)s2)c1

Structure (SMILES): Nc1cnc(N2CCc3cc(S(=O)(=O)Nc4c(F)cc(Cl)cc4F)cc(N4CCCC4=O)c32)nc1 [TP-020n]
% of inhibition (D(2) dopamine receptor): -0.42%

Structure (SMILES): N#Cc1cccc(-c2c[nH]c3ncnc(N4CCOCC4)c23)c1
% of control [6]: 89%

Structure (SMILES): CNC(=O)Nc1ccc(-c2nc(N3CC4CCC(C3)O4)c3cnn(C4CCC5(CC4)OCCO5)c3n2)cc1
% of control [7]: 85%
